The values below come from patent US20210330735A1, “COMPOSITIONS AND METHODS FOR THE TREATMENT OF TRAUMATIC OPTIC NEUROPATHY” (Stealth BioTherapeutics Corp, priority 2018, published 2021).

For data set [1], the system named is retinal ganglion cells (RGC). Description: RGC survival in sonication-induced TON (SI-TON) model, Example 2. The class given is in vivo, mice. The settings on record: two weeks following injury, early use, peptide 2 mg/kg SQ for 7 days. From the text: SI-TON is induced by a microtip probe sonifier placed on the supraorbital ridge directly above the entrance of the optic nerve into the bony canal, as described in Tao, W. et al., Scientific Reports (2017) 7: 11779 (incorporated herein by reference). An ultrasonic pulse is then delivered to the optic nerve. After injury, the number of RGCs in the retina as well as visual function measured by PERG steadily decrease over a two-week period. […] The SI-TON model is capable of delivering a non-contact concussive injury to the optic nerve and induce TON in mice.
Two models for TON were utilized in this example: a novel sonication-induced TON (SI-TON) that closely recapitulates the clinical manifestations of indirect TON, and optic nerve crush-induced TON (ONC-TON) which reflects a more severe form of TON often resulting in axotomized nerve fibers and ruptured nervous vasculature. […]
(§1) A baseline recording of visual function by pattern electroretinogram (PERG) and imaging of the optic disc was performed prior to inducing SI-TON or ONC-TON. […] Euthanized animals were evaluated for RGC dropout by flat mount. […]
To test if a combinatorial strategy results in improved visual outcomes, a therapeutic agent, such as a TNF-alpha inhibitor (e.g., etanercept), D-Arg-2′6′-Dmt-Lys-Phe-NH2, or a combination of these pharmaceutical agents was assessed. […] Euthanized animals were evaluated for RGC dropout by flat mount. […]

Data set [2] has as its system retinal ganglion cells (RGC). Kind of data set: RGC survival in optic nerve crush-induced TON (ONC-TON) model, Example 2. The class given is in vivo, rat. Particulars: two weeks following injury, early use, peptide 2 mg/kg SQ for 7 days.
Source text: ONC-TON is induced by exposing the optic nerve of an adult rat and creating a small opening in the meninges of the nerve, as described in Solomon, A. et al., J. of Neurosci. Methods (1996) 70: 21-25, (incorporated herein by reference). The opening is created about 2-3 mm behind the eye globe. A glass dissector is introduced through the opening and is used to cut all the axons through the whole width of the nerve. Complete […] of the optic nerve axons is achieved, while retaining the continuity of the meninges and avoiding damage to the nerve's vascular supply. Transection can be confirmed by transillumination showing a complete gap in the continuity of the nerve axons, and by both morphological and electrophysiological criteria. The opening created in the ‘meningeal tube’ can be used to inject substances that may be of benefit in recovery, rescue and/or regeneration of the injured axons. […]
as §1
To test if a combinatorial strategy results in improved visual outcomes, a therapeutic agent, such as a TNF-alpha inhibitor (e.g., etanercept), D-Arg-2′6′-Dmt-Lys-Phe-NH2, or a combination of these pharmaceutical agents was assessed. […]

Data set [3] concerns subjects suspected of having or diagnosed as having TON. Description: Treatment of subjects with TON, Example 1 (predicted). Particulars: for effect in combination with one or more additional therapeutic agents: compared with peptide or additional agent alone, expected; for severity of symptoms associated with TON: daily 1 mg/kg body weight, predicted. The class given is in vivo. The method, then:
Subjects suspected of having or diagnosed as having TON receive daily administrations of 1 mg/kg body weight of aromatic-cationic peptide, such as 2′6′-Dmt-D-Arg-Phe-Lys-NH2, Phe-D-Arg-Phe-Lys-NH2, or D-Arg-2′6′-Dmt-Lys-Phe-NH2, or a pharmaceutically acceptable salt thereof (such as an mono, bis, or tri-acetate salt, a tartrate salt, a fumarate salt, a mono, bis, or tri-HCl salt, a mono, bis, or tri-tosylate salt, or a mono, bis, or tri-trifluoroacetate salt) alone or in combination with one or more additional therapeutic agents for the treatment or prevention of TON. Peptides and/or additional therapeutic agents are administered orally, topically, systemically, intravenously, subcutaneously, intravitreally, intraperitoneally, or intramuscularly according to methods known in the art. Subjects will be evaluated weekly for the presence and/or severity of signs and symptoms associated with TON including, but not limited to, e.g., vision loss, blurred vision, RGC damage, scotoma, decreased color sensation, uveitis, optic neuritis, eye pain, optic nerve avulsion, optic nerve transection, optic nerve sheath hemorrhage, orbital hemorrhage, choroidal rupture, and commotio retinae. Treatments are maintained until such a time as one or more signs or symptoms of TON are ameliorated or eliminated.

The test system of data set [4] is several mammalian cell types. Particulars: energy-independent manner; cited from earlier work.
In data set [5] the test system is retinal ganglion cells (RGCs). Kind of data set: Sequential administration study, PERG after US-TON (SI-TON), Example 4. Particulars: 5 mg/kg 4-AP added to any formulation from two weeks post-injury, two and four weeks post treatment. The class given is in vivo, mice. The method, then:
(§2) The sequential administration study was conducted as depicted in FIG. 4. A baseline visual function of retinal ganglion cells (RGCs) was obtained using pattern electroretinography (PERG) to record the electrical activity of RGCs, Optical Coherence Tomography (OCT) to evaluate the thickness of the Retinal Nerve Fiber Layer (RNFL), and Heidelberg Retina Topography (HRT) to evaluate subtle changes in the optic nerve caused by trauma. At day zero, US-TON (SI-TON) was induced by a microtip probe sonifier placed on the supraorbital ridge directly above the entrance of the optic nerve into the bony canal, as described in Example 2.
(§3) On the first day, six mice were administered either a bolus subcutaneous injection of 3 mg/kg ([…]) Etanercept (Enbrel™, Groups 1 and 2), 10 mg/kg (300 μg per 30 g mouse) D-Arg-2′6′-Dmt-Lys-Phe-NH2(MTP-131, Groups 3 and 4), or PBS (Groups 5 and 6), followed by daily injections of the drug formulation for a period of 3 days. On the sixth day, Groups 1 and 2 were administered a bolus subcutaneous injection of 10 mg/kg (300 μg per 30 g mouse) D-Arg-2′6′-Dmt-Lys-Phe-NH2; Groups 3 and 4 were administered a bolus subcutaneous injection of 3 mg/kg ([…]) Etanercept; and Groups 5 and 6 received PBS, followed by daily injections of the drug formulation for three days. […]

Data set [6] deals with Retinal Nerve Fiber Layer (RNFL) and Inner Plexiform Layer (IPL). Kind of data set: Sequential administration study, OCT thickness of RNFL and IPL after US-TON (SI-TON), Example 4. The settings on record: four weeks after treatments. The class given is in vivo, mice. The method, then: as §2, §3
Data set [7] deals with retinal ganglion cells (RGCs). Kind of data set: Safety and efficacy of acute intravitreal administration, PERG before and after SI-TON, Example 5. The class given is in vivo, C57BL/6 J mice. The method, then:
To determine the safety of acute intravitreal administration of aromatic-cationic peptides in vivo, SI-TON was induced in 3-month-old C57BL/6 J mice with a Branson Digital Sonifier 450 (Branson) by a 3 mm microtip probe (Branson) in an acoustic soundproof enclosure chamber, as described in Example 2. Fifteen minutes following the induction of TON, a group of ten mice were administered 1.3 μL of 100 nM D-Arg-2′6′-Dmt-Lys-Phe-NH2 (MTP-131) intravitreally in the left eye (OS, treated). A different subset of mice was administered control PBS solution intravitreally in the left eye (OS, treated) followed by subcutaneous injection with 5 mg/kg D-Arg-2′6′-Dmt-Lys-Phe-NH2 fifteen minutes post-injury. A baseline recording of the mice visual function was recorded using electrophysiological recording of RGCs through PERG prior to SI-TON induction and the functional visual outcome of the mice was tested again 4 weeks post-injury.

“And” between values parts separate entries of the source, which are not always exact repeats. Equal entries are not always repeated. Non-standard residues stand in square brackets, D forms with d. Residues, ends and D or L forms follow the SMILES beside them. No end group written: not given here. Dmt = Cc1cc(O)cc(C)c1C[C@H](N)C(=O)O

For etanercept, the “percent RGC survival” value in data set [1] is 97.08% and 97.08±2.21%; in data set [2] it was 48.94% and 48.94±1.94%.

F[dR]FK-NH2: in data set [3], the “effect in combination with one or more additional therapeutic agents” value is recorded as “synergistic effects” and the “severity of symptoms associated with TON” value is “reduced severity or elimination of one or more symptoms associated with TON”.

Consider 2′6′-Dmt-D-Arg-Phe-Lys-NH2, for which, in data set [3], the “effect in combination with one or more additional therapeutic agents” value is listed as “synergistic effects” and the “severity of symptoms associated with TON” value is listed as “reduced severity or elimination of one or more symptoms associated with TON”. Also, in data set [4], the “penetration of the plasma membrane” value is given as “readily penetrates the plasma membrane”.

With `Nc1ccncc1` [4-AP, 4-aminopyridine], the “RGC electrical activity measured by PERG” value in data set [5] is on record as “significantly increased RGC electrical activity”. Besides, in data set [6], the “RNFL and IPL thickness by OCT” value is listed as “did not significantly improve”.

As for `Cc1cc(O)cc(C)c1C[C@H](NC(=O)[C@H](N)CCCNC(=N)N)C(=O)N[C@@H](CCCCN)C(=O)N[C@@H](Cc1ccccc1)C(N)=O` [D-Arg-2′6′-Dmt-Lys-Phe-NH2] (H-[dR][Dmt]KF-NH2), in data set [7] (acute intravitreal injection, 1.3 μL of 100 nM), the “safety of direct application to the eye” value was “did not show evidence of toxicity”. Moreover, the “baseline electrophysiological recording of RGCs (PERG), treated vs control” value in data set [7] (uninjured baseline, left eye) was “substantially similar”.
